The source of these data is patent US10077261B2, “Imidazolin-5-one derivative useful as FASN inhibitors for the treatment of cancer” (Janssen Pharmaceutica NV, priority 2012, dated 2018).

In general, inhibition refers to the drop in the measured response relative to a control, in per cent. As a reminder, the pIC50 is the negative decadic logarithm of the IC50, by convention in mol/L. Low readings indicate a large IC50, high ones a small IC50.

pIC50: −log10 of the molar value. Where only a bound is given, the exact number is not on record here.

The target in assay [1] is T1, hFASN enzyme (full length) (Homo sapiens, UniProt P49327).
T1 construct: 10 μL hFASN enzyme (full length, 300 ng, purified in house); made in house
Briefly: Fatty Acid Synthase (FASN) inhibition scintillation proximity assay. The format is biochemical. The conditions noted are these: for inhibition at 10 µM: read-out: Human FASN % inhibition @ 10 μM, 10 μM test compound; for IC50: read-out: Human FASN pIC50 (converted). The essentials: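 Proximity read-out: hydrophobic ^3H-palmitate formed from ^3H-acetyl-CoA and malonyl-CoA binds streptavidin imaging beads, imaged at 610±20 nm at least 24 h after stopping. Enzyme was in-house purified full-length hFASN, 300 ng, in pH 7.5 phosphate/DTT buffer; compound series 30 μM down to 0.01 μM, normalized to controls, 4-parameter fit.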
On the technique in general: SPA uses beads or plates that emit light when radiolabelled molecules are held near them.

Assay [2] relates to A2780 ovarian cells. Briefly: A2780 ovarian cell proliferation assay in lipid reduced medium, with palmitate (MTT). To be noted: Homo sapiens, A2780, 96 h; read-out: pIC50 A2780 Ovarian Cell, With Palmitate (converted). The format is cell-based. The essentials:
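In this palmitate-supplemented format, compound dilutions (30 μM down to 0.01 μM) are added to cells in lipid-reduced serum with 25 μM palmitate, 0.2% fatty-acid-free BSA and 0.25% ethanol. After four days (96 h) MTT absorbance at 544 nm is recorded and fitted by minimum sum of squares.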

Assay [3] relates to A2780 ovarian cells. Briefly: A2780 ovarian cell proliferation assay in lipid reduced medium, without palmitate (MTT). The class given is cell-based. The conditions noted are these: Homo sapiens, A2780, 96 h; read-out: pIC50 A2780 Ovarian Cell, Without Palmitate (converted).
In assay [4] the test system is LNCaP-Vancouver prostate cells. Briefly: In vitro LNCaP Vancouver prostate cell proliferation assay in lipid reduced medium. The format is cell-based. To be noted: read-out: pIC50 LNCaP_Vancouver prostate cell (converted).
For assay [5], the system named is PC-3M-Luc-C6 prostate cells. As to the kind of experiment: In vitro PC-3M-Luc-C6 prostate cell proliferation assay in lipid reduced medium. The format is cell-based. The conditions noted are these: 96 h, read-out: pIC50 PC-3M-Luc-C6 prostate cell (converted).
In assay [6] the target is Fatty Acid Synthase Keto-reductase Domain (FASN KR) (Homo sapiens, UniProt P49327). Briefly: Fatty Acid Synthase keto-reductase domain (FASN KR) inhibition, NADPH oxidation at 340 nm.
Fatty Acid Synthase Keto-reductase Domain (FASN KR), sequence (P49327 whole entry, the tested form may be a part): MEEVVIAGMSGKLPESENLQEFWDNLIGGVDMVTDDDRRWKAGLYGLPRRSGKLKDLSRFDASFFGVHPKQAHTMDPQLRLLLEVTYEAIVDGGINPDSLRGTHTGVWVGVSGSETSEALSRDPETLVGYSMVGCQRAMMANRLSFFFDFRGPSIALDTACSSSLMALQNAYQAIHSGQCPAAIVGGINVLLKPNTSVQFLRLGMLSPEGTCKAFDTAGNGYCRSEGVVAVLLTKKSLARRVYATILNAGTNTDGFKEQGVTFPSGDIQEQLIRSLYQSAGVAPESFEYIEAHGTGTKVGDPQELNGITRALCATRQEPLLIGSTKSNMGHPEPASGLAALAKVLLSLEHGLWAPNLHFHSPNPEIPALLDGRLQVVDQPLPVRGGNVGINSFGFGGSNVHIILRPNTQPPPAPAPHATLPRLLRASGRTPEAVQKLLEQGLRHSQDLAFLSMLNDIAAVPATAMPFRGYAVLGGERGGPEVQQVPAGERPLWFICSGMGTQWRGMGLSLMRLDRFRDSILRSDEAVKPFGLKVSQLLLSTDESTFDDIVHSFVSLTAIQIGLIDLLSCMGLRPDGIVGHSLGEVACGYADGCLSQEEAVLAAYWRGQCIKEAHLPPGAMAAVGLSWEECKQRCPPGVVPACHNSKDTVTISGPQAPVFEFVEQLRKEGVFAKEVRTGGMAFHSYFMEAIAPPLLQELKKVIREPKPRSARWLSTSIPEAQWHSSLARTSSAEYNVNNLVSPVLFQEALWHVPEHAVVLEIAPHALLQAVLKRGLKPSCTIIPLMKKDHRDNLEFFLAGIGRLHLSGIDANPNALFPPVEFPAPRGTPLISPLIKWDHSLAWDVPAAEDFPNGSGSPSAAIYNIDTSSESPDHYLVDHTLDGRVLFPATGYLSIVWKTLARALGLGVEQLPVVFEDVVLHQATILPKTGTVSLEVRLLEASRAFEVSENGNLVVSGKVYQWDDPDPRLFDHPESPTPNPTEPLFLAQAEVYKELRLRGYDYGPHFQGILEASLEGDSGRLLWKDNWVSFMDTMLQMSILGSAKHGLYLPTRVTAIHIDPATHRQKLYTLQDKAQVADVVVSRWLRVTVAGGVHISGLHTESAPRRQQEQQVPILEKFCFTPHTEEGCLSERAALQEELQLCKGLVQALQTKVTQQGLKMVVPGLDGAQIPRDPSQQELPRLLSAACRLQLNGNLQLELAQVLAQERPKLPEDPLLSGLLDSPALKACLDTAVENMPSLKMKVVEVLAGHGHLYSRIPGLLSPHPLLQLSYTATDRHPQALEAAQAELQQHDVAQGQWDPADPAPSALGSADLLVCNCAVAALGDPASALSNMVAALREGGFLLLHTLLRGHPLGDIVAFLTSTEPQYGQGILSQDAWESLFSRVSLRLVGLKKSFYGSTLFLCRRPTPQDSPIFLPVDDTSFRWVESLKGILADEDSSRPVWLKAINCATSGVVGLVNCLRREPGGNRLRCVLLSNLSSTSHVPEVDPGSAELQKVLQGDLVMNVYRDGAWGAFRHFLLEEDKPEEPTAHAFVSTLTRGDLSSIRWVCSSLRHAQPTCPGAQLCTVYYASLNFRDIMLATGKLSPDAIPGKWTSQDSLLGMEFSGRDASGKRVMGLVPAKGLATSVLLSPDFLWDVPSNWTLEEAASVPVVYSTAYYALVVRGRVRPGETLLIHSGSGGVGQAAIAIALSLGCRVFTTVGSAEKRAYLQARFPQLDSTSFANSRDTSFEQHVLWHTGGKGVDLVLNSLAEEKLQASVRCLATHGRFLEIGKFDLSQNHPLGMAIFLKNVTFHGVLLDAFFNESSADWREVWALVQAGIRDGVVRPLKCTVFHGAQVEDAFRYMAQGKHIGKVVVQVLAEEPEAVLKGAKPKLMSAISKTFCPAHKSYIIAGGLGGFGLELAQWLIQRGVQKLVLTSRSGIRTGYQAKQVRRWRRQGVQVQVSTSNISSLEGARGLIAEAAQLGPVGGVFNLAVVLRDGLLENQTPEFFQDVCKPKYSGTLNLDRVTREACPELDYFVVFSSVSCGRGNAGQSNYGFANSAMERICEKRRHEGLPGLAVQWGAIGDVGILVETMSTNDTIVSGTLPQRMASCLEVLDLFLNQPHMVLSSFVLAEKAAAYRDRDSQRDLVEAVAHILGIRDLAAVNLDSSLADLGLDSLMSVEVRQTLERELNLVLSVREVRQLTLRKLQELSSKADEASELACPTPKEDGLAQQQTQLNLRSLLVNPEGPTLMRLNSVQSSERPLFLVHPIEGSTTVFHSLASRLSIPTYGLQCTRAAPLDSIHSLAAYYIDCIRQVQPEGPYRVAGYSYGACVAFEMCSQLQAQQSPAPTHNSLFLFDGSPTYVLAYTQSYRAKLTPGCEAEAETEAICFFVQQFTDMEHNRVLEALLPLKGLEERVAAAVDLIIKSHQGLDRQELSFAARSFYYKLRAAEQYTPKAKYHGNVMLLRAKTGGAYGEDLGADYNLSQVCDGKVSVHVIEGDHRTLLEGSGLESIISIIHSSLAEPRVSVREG
Protocol: After 20 minutes incubation at room temperature the plate was measured again (T2).
The decrease in absorbance was calculated as (Absorbance before incubation T1)−(Absorbance following incubation T2).
A plot of Controlmin versus test compound concentration was fitted to a 4-parameter logistic curve using a non-linear least squares regression method.

T1 sequence (P49327 whole entry): as the sequence (P49327 whole entry, the tested form may be a part) above

As to `Cc1cc(-c2ccc3c(cnn3C)c2)ccc1C1=NC2(CC2)C(=O)N1CC1CN(C(=O)C2(C)CCC2)C1` [compound 208, 5-(2-methyl-4-(1-methyl-1H-indazol-5-yl)phenyl)-6-((1-(1-methylcyclobutanecarbonyl)azetidin-3-yl)methyl)-4,6-diazaspiro[2.4]hept-4-en-7-one], the inhibition at 10 µM in assay [1] stood at 99%. Also, the IC50 in assay [1] is 0.0646 µM; in the assay with A2780 ovarian cells [2], 6.03 µM; in the assay with A2780 ovarian cells [3] it was approximately 0.0724 µM; in assay [4], 0.117 µM; in assay [5] it was 0.0437 µM. The pIC50 in assay [6] was 6.98.
Take `O=C(C1CC1)N1CC[C@@H](CN2C(=O)C3(CC3)N=C2c2ccc(-c3ccc(F)c(Cl)c3)cc2)C1` [compound 209, (R)-5-(3-chloro-4-fluoro-[1,1-biphenyl]-4-yl)-6-((1-(cyclopropanecarbonyl)pyrrolidin-3-yl)methyl)-4,6-diazaspiro[2.4]hept-4-en-7-one]: in assay [1], the inhibition at 10 µM came to 108%. Also, the IC50 is 0.0891 µM in assay [1]; more than 10 µM in the assay on A2780 ovarian cells [2]; 1.86 µM with A2780 ovarian cells [3]; 4.17 µM in assay [4]; approximately 0.776 µM in assay [5]. This compound had a pIC50 in assay [6] of 6.59.
As to `N#CCc1c[nH]c2ccc(-c3ccc(C4=NC5(CC5)C(=O)N4C[C@@H]4CCN(C(=O)C5CC5)C4)cc3)cc12` [compound 212, (R)-2-(5-(4-(6-((1-(cyclopropanecarbonyl)pyrrolidin-3-yl)methyl)-7-oxo-4,6-diazaspiro[2.4]hept-4-en-5-yl)phenyl)-1H-indole-3-yl)acetonitrile], in assay [1], the inhibition at 10 µM came to 101%. In addition, the IC50 was 0.0282 µM in assay [1]; more than 10 µM with A2780 ovarian cells [2]; 0.00724 µM in the assay on A2780 ovarian cells [3]; 0.11 µM in assay [4]; 0.0182 µM in assay [5]. This compound gave a pIC50 in assay [6] of 7.43.
In the case of `Cc1[nH]c2ccc(-c3ccc(C4=NC5(CC5)C(=O)N4C[C@@H]4CCN(C(=O)C5CC5)C4)cc3)cc2c1C` [compound 213, (R)-6-((1-(cyclopropanecarbonyl)pyrrolidin-3-yl)methyl)-5-(4-(2,3-dimethyl-1H-indol-5-yl)phenyl)-4,6-diazaspiro[2.4]hept-4-en-7-one], the inhibition at 10 µM in assay [1] was 95%. Further, the IC50 in assay [1] is 0.0468 µM; in the assay with A2780 ovarian cells [2], more than 10 µM; in the assay with A2780 ovarian cells [3], 0.115 µM; in assay [4], 0.355 µM; in assay [5], approximately 0.112 µM. The compound also had a pIC50 in assay [6] of 7.12.
Consider `Cc1cc2cc(-c3ccc(C4=NC5(CC5)C(=O)N4C[C@@H]4CCN(C(=O)C5CC5)C4)cc3)ccc2[nH]1` [compound 214, (R)-6-((1-(cyclopropanecarbonyl)pyrrolidin-3-yl)methyl)-5-(4-(2-methyl-1H-indol-5-yl)phenyl)-4,6-diazaspiro[2.4]hept-4-en-7-one], for which, in assay [1], the inhibition at 10 µM is 99%. Moreover, the IC50 in assay [1] is 0.0224 µM; in the assay with A2780 ovarian cells [2] it was more than 10 µM; with A2780 ovarian cells [3] it was approximately 0.0646 µM; in assay [4], 0.363 µM; in assay [5] it was 0.0661 µM. The same compound showed a pIC50 in assay [6] of 7.09.
Turning to `Cn1ccc2cc(-c3ccc(C4=NC5(CC5)C(=O)N4C[C@@H]4CCN(C(=O)C5CC5)C4)cc3)ccc21` [compound 215, (R)-6-((1-(cyclopropanecarbonyl)pyrrolidin-3-yl)methyl)-5-(4-(1-methyl-1H-indol-5-yl)phenyl)-4,6-diazaspiro[2.4]hept-4-en-7-one], the inhibition at 10 µM in assay [1] stood at 102%. Moreover, the IC50 in assay [1] was 0.0234 µM; in the assay with A2780 ovarian cells [2], more than 10 µM; with A2780 ovarian cells [3], 0.0204 µM; in assay [4], 0.0708 µM; in assay [5] it was 0.0158 µM. The compound further gave a pIC50 in assay [6] of 7.61.
`O=C(C1CC1)N1CC[C@@H](CN2C(=O)C3(CC3)N=C2c2ccc(-c3ccc4[nH]c(CO)cc4c3)cc2)C1` [compound 216, (R)-6-((1-(cyclopropanecarbonyl)pyrrolidin-3-yl)methyl)-5-(4-(2-(hydroxymethyl)-1H-indol-5-yl)phenyl)-4,6-diazaspiro[2.4]hept-4-enn-7-one]: the inhibition at 10 µM in assay [1] came to 102%. Further, the IC50 in assay [1] is 0.0288 µM; in the assay on A2780 ovarian cells [2], more than 10 µM; with A2780 ovarian cells [3] it was 0.0631 µM; in assay [4], 0.162 µM; in assay [5], approximately 0.0537 µM. Further, in assay [6], the negative-log IC50 (pIC50) is 7.31.
With `O=C(C1CC1)N1CC[C@@H](CN2C(=O)C3(CC3)N=C2c2ccc(-c3ccc4[nH]cc(CCO)c4c3)cc2)C1` [compound 217, (R)-6-((1-(cyclopropanecarbonyl)pyrrolidin-3-yl)methyl)-5-(4-(3-(2-hydroxyethyl)-1H-indol-5-yl)phenyl)-4,6-diazaspiro[2.4]hept-4-en-7-one], the inhibition at 10 µM in assay [1] turned out to be 103%. The IC50 in assay [1] is 0.0288 µM; in the assay on A2780 ovarian cells [2], more than 10 µM; with A2780 ovarian cells [3], 0.0302 µM; in assay [4], 0.178 µM; in assay [5], 0.0501 µM. This compound showed a pIC50 in assay [6] of 7.31.
Regarding `Cc1nn(C)c2ccc(-c3ccc(C4=NC5(CC5)C(=O)N4C[C@@H]4CCN(C(=O)C5CC5)C4)cc3)cc12` [compound 218, (R)-6-((1-(cyclopropanecarbonyl)pyrrolidin-3-yl)methyl)-5-(4-(1,3-dimethyl-1H-indazol-5-yl)phenyl)-4,6-diazaspiro[2.4]hept-4-en-7-one], in assay [1], the inhibition at 10 µM worked out at 95%. Besides, the IC50 in assay [1] was 0.0724 µM; in the assay with A2780 ovarian cells [2], more than 10 µM; in the assay on A2780 ovarian cells [3] it was 0.0851 µM; in assay [4], 0.417 µM; in assay [5], 0.0724 µM. The pIC50 in assay [6] was 6.99.
For `Nc1cc2cc(-c3ccc(C4=NC5(CC5)C(=O)N4C[C@@H]4CCN(C(=O)C5CC5)C4)cc3)ccc2cn1` [compound 219, (R)-5-(4-(3-aminoisoquinolin-6-yl)phenyl)-6-((1-(cyclopropanecarbonyl)pyrrolidin-3-yl)methyl)-4,6-diazaspiro[2.4]hept-4-en-7-one], in assay [1], the inhibition at 10 µM was determined as 103%. The IC50 was 0.0759 µM in assay [1]; 1.17 µM in the assay with A2780 ovarian cells [2]; 0.0676 µM in the assay with A2780 ovarian cells [3]; 0.302 µM in assay [4]; 0.126 µM in assay [5]. Moreover, in assay [6], the pIC50 was 6.58.
For the compound `Cn1nc(C(N)=O)c2ccc(-c3ccc(C4=NC5(CC5)C(=O)N4C[C@@H]4CCN(C(=O)C5CC5)C4)cc3)cc21` [compound 221, (R)-6-(4-(6-((1-(cyclopropanecarbonyl)pyrrolidin-3-yl)methyl)-7-oxo-4,6-diazaspiro[2.4]hept-4-en-5-yl)phenyl)-1-methyl-1H-indazole-3-carboxamide], the inhibition at 10 µM in assay [1] was 92%. Further, the IC50 is 0.0977 µM in assay [1]; 6.92 µM in the assay with A2780 ovarian cells [2]; 0.0468 µM in the assay on A2780 ovarian cells [3]; approximately 0.38 µM in assay [4]; 0.132 µM in assay [5]. In assay [6], this compound had a pIC50 of 6.63.
Consider `N#Cc1ccc2cc(-c3ccc(C4=NC5(CC5)C(=O)N4CC4CN(C(=O)C5CC5)C4)c(F)c3)ccc2c1` [compound 222, 6-(4-(6-((1-(cyclopropanecarbonyl)azetidin-3-yl)methyl)-7-oxo-4,6-diazaspiro[2.4]hept-4-en-5-yl)-3-fluorophenyl)-2-naphthanitrile], for which the inhibition at 10 µM in assay [1] amounted to 103%. Further, the IC50 was 0.0275 µM in assay [1]; approximately 2.45 µM in the assay on A2780 ovarian cells [2]; 0.00617 µM in the assay with A2780 ovarian cells [3]; 0.0468 µM in assay [4]; 0.00933 µM in assay [5]. Further, the negative-log IC50 (pIC50) in assay [6] is approximately 7.29.
On to `Cc1cc(-c2ccc3cc(C#N)ccc3c2)ccc1C1=NC2(CC2)C(=O)N1CC1CN(C(=O)C2CCO2)C1` (centres unmarked) [compound 224, 6-(3-methyl-4-(6-((1-(oxetane-2-carbonyl)azetidin-3-yl)methyl)-7-oxo-4,6-diazaspiro[2.4]hept-4-en-5-yl)phenyl)-2-naphthonitrile], for which the inhibition at 10 µM in assay [1] was determined as 103%. Further, the IC50 was 0.0251 µM in assay [1]; approximately 10 µM with A2780 ovarian cells [2]; 0.00776 µM in the assay on A2780 ovarian cells [3]; 0.0562 µM in assay [4]; 0.0126 µM in assay [5]. This compound had a pIC50 in assay [6] of 7.11.
Take `N#Cc1ccc2cc(-c3ccc(C4=NC5(CC5)C(=O)N4CC4CN(C(=O)C5(F)CC5)C4)c(F)c3)ccc2c1` [compound 225, 6-(3-fluoro-4-(6-((1-(1-fluorocyclopropanecarbonyl)azetidin-3-yl)methyl)-7-oxo-4,6-diazaspiro[2.4]hept-4-en-5-yl)phenyl)-2-naphthonitrile]: in assay [1], the inhibition at 10 µM was found to be 95%. In addition, the IC50 in assay [1] is 0.038 µM; with A2780 ovarian cells [2], 5.25 µM; with A2780 ovarian cells [3] it was 0.0251 µM; in assay [4], 0.158 µM; in assay [5], 0.0269 µM. In assay [6], this compound had a pIC50 of 7.13.
